Reference: ChEMBL document CHEMBL1201861, “Genomics of Drug Sensitity in Cancer screening data, Wellcome Trust Sanger Institute”

Legend:
Experiment in all cases: cells
CW-2 = type: functional, cell-based, Homo sapiens; details: Homo sapiens, CW-2;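 note: growth inhibition of CW-2 cells, read out by a cell viability assay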
Description: SANGER: Inhibition of human CW-2 cell growth in a cell viability assay.

Calu-6 = type: functional, cell-based, Homo sapiens; details: Homo sapiens, Calu-6;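 note: growth of human Calu-6 cells, read out by a cell viability assay, IC50 marking inhibition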
Description: SANGER: Inhibition of human Calu-6 cell growth in a cell viability assay.

D-263MG = type: functional, cell-based, Homo sapiens; details: Homo sapiens, D-263MG
Description: SANGER: Inhibition of human D-263MG cell growth in a cell viability assay.

GI-1 = type: functional, cell-based, Homo sapiens; details: Homo sapiens, GI-1;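 note: growth inhibition of human GI-1 cells, measured with a cell viability readout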
Description: SANGER: Inhibition of human GI-1 cell growth in a cell viability assay.

GT3TKB = type: functional, cell-based, Homo sapiens; details: Homo sapiens, GT3TKB;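 note: growth inhibition of the cell line, read out with a cell viability assay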
Description: SANGER: Inhibition of human GT3TKB cell growth in a cell viability assay.

HCE-T = type: functional, cell-based, Homo sapiens; details: Homo sapiens, HCE-T;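 note: cell viability assay read-out, reporting inhibition of HCE-T cell growth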
Description: SANGER: Inhibition of human HCE-T cell growth in a cell viability assay.

HuTu80 = type: functional, cell-based, Homo sapiens, HUTU-80; details: Homo sapiens, HuTu80;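 note: growth inhibition of HuTu80 human cells, determined with a cell viability readout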
Description: SANGER: Inhibition of human HUTU-80 cell growth in a cell viability assay.

JAR = type: functional, cell-based, Homo sapiens; details: Homo sapiens, JAR;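 note: growth inhibition of human JAR cells determined with a cell viability assay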
Description: SANGER: Inhibition of human JAR cell growth in a cell viability assay.

KURAMOCHI = type: functional, cell-based, Homo sapiens; details: Homo sapiens, KURAMOCHI;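 note: growth inhibition of KURAMOCHI cells, read out with a cell viability assay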
Description: SANGER: Inhibition of human KURAMOCHI cell growth in a cell viability assay.

LB2518-MEL = type: functional, cell-based, Homo sapiens; details: Homo sapiens, LB2518-MEL;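 note: growth inhibition of human LB2518-MEL cells, measured with a cell viability assay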
Description: SANGER: Inhibition of human LB2518-MEL cell growth in a cell viability assay.

LC-2-ad = type: functional, cell-based, Homo sapiens; details: Homo sapiens, LC-2-ad;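 note: growth inhibition of human LC-2-ad cells, read out with a cell viability assay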
Description: SANGER: Inhibition of human LC-2-ad cell growth in a cell viability assay.

LNCaP-Clone-FGC = type: functional, cell-based, Homo sapiens; details: Homo sapiens, LNCaP-Clone-FGC
Description: SANGER: Inhibition of human LNCaP-Clone-FGC cell growth in a cell viability assay.

LS-513 = type: functional, cell-based, Homo sapiens; details: Homo sapiens, LS-513
Description: SANGER: Inhibition of human LS-513 cell growth in a cell viability assay.

MLMA = type: functional, cell-based, Homo sapiens; details: Homo sapiens, MLMA;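 note: growth inhibition of MLMA cells (human), determined through a cell viability readout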
Description: SANGER: Inhibition of human MLMA cell growth in a cell viability assay.

MMAC-SF = type: functional, cell-based, Homo sapiens; details: Homo sapiens, MMAC-SF;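 note: growth inhibition of human MMAC-SF cells, read out with a cell viability assay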
Description: SANGER: Inhibition of human MMAC-SF cell growth in a cell viability assay.

MZ2-MEL = type: functional, cell-based, Homo sapiens; details: Homo sapiens, MZ2-MEL;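 note: growth inhibition of MZ2-MEL cells read out with a cell viability assay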
Description: SANGER: Inhibition of human MZ2-MEL cell growth in a cell viability assay.

MZ7-mel = type: functional, cell-based, Homo sapiens; details: Homo sapiens, MZ7-mel;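 note: growth inhibition of human MZ7-mel cells, measured by a cell viability assay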
Description: SANGER: Inhibition of human MZ7-mel cell growth in a cell viability assay.

NB12 = type: functional, cell-based, Homo sapiens; details: Homo sapiens, NB12;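 note: growth inhibition of human NB12 cells, read out by a cell viability assay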
Description: SANGER: Inhibition of human NB12 cell growth in a cell viability assay.

NB5 = type: functional, cell-based, Homo sapiens; details: Homo sapiens, NB5;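 note: growth inhibition of NB5 cells, read out as cell viability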
Description: SANGER: Inhibition of human NB5 cell growth in a cell viability assay.

NB69 = type: functional, cell-based, Homo sapiens; details: Homo sapiens, NB69;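 note: growth inhibition of NB69 cells, determined by a cell viability assay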
Description: SANGER: Inhibition of human NB69 cell growth in a cell viability assay.

OMC-1 = type: functional, cell-based, Homo sapiens; details: Homo sapiens, OMC-1;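 note: growth inhibition of the OMC-1 cell line, measured by a cell viability assay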
Description: SANGER: Inhibition of human OMC-1 cell growth in a cell viability assay.

ONS-76 = type: functional, cell-based, Homo sapiens; details: Homo sapiens, ONS-76;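 note: growth inhibition of human ONS-76 cells, read out with a cell viability assay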
Description: SANGER: Inhibition of human ONS-76 cell growth in a cell viability assay.

RCC10RGB = type: functional, cell-based, Homo sapiens; details: Homo sapiens, RCC10RGB;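 note: growth inhibition of human RCC10RGB cells, read out by a cell viability assay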
Description: SANGER: Inhibition of human RCC10RGB cell growth in a cell viability assay.

SF-539 = type: functional, cell-based, Homo sapiens; details: Homo sapiens, SF-539;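 note: Read-out is a cell viability assay, with IC50 reflecting inhibition of cell growth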
Description: SANGER: Inhibition of human SF539 cell growth in a cell viability assay.

SK-UT-1 = type: functional, cell-based, Homo sapiens; details: Homo sapiens, SK-UT-1;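 note: growth inhibition of SK-UT-1 cells, measured by a cell viability assay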
Description: SANGER: Inhibition of human SK-UT-1 cell growth in a cell viability assay.

SW872 = type: functional, cell-based, Homo sapiens; details: Homo sapiens, SW872;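 note: growth inhibition of SW872 cells, read out by a viability assay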
Description: SANGER: Inhibition of human SW872 cell growth in a cell viability assay.

TE-1 = type: functional, cell-based, Homo sapiens; details: Homo sapiens, TE-1;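 note: growth inhibition of the human TE-1 cell line, read out with a cell viability assay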
Description: SANGER: Inhibition of human TE-1 cell growth in a cell viability assay.

A101D = type: functional, cell-based, Homo sapiens; details: Homo sapiens, A101D;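 note: growth inhibition of the cell line, measured with a viability assay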
Description: SANGER: Inhibition of human A101D cell growth in a cell viability assay.

A253 cell line = type: functional, cell-based, Homo sapiens; details: Homo sapiens, A253;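 note: growth inhibition of A253 cells, read out with a cell viability assay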
Description: SANGER: Inhibition of human A253 cell growth in a cell viability assay.

ACN = type: functional, cell-based, Homo sapiens; details: Homo sapiens, ACN;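 note: growth inhibition of the human ACN cell line, read out via cell viability testing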
Description: SANGER: Inhibition of human ACN cell growth in a cell viability assay.

TE-8 = type: functional, cell-based, Homo sapiens; details: Homo sapiens, TE-8;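 note: growth inhibition of TE-8 cells, measured with a cell viability readout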
Description: SANGER: Inhibition of human TE-8 cell growth in a cell viability assay.

COLO-668 = type: functional, cell-based, Homo sapiens; details: Homo sapiens, COLO-668
Description: SANGER: Inhibition of human COLO-668 cell growth in a cell viability assay.

DB = type: functional, cell-based, Homo sapiens; details: Homo sapiens, DB
Description: SANGER: Inhibition of human DB cell growth in a cell viability assay.

DEL = type: functional, cell-based, Homo sapiens; details: Homo sapiens, DEL;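 note: growth inhibition of the human DEL cell line, read out with a cell viability assay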
Description: SANGER: Inhibition of human DEL cell growth in a cell viability assay.

HT = type: functional, cell-based, Homo sapiens; details: Homo sapiens, HT
Description: SANGER: Inhibition of human HT cell growth in a cell viability assay.

JVM-2 = type: functional, cell-based, Homo sapiens; details: Homo sapiens, JVM-2;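 note: growth inhibition of JVM-2 cells determined by a cell viability assay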
Description: SANGER: Inhibition of human JVM-2 cell growth in a cell viability assay.

KE-37 = type: functional, cell-based, Homo sapiens; details: Homo sapiens, KE-37;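 note: growth inhibition of KE-37 cells, read out with a cell viability assay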
Description: SANGER: Inhibition of human KE-37 cell growth in a cell viability assay.

KG-1 = type: functional, cell-based, Homo sapiens; details: Homo sapiens, KG-1;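 note: growth inhibition of KG-1 cells, read out by a cell viability assay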
Description: SANGER: Inhibition of human KG-1 cell growth in a cell viability assay.

KU812 cell line = type: functional, cell-based, Homo sapiens; details: Homo sapiens, KU812;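 note: growth inhibition of KU812 cells, read out with a cell viability assay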
Description: SANGER: Inhibition of human KU812 cell growth in a cell viability assay.

L-428 = type: functional, cell-based, Homo sapiens; details: Homo sapiens, L-428
Description: SANGER: Inhibition of human L-428 cell growth in a cell viability assay.

LU-134-A = type: functional, cell-based, Homo sapiens; details: Homo sapiens, LU-134-A
Description: SANGER: Inhibition of human LU-134-A cell growth in a cell viability assay.

Lu-65 = type: functional, cell-based, Homo sapiens; details: Homo sapiens, Lu-65;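 note: growth inhibition of Lu-65 cancer cells, read out by a cell viability assay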
Description: SANGER: Inhibition of human LU-65 cell growth in a cell viability assay.

MC116 = type: functional, cell-based, Homo sapiens; details: Homo sapiens, MC116;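 note: growth inhibition of MC116 cells, read out with a cell viability assay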
Description: SANGER: Inhibition of human MC116 cell growth in a cell viability assay.

MHH-PREB-1 = type: functional, cell-based, Homo sapiens; details: Homo sapiens, MHH-PREB-1;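 note: cell viability assay measuring inhibition of proliferation of human MHH-PREB-1 cells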
Description: SANGER: Inhibition of human MHH-PREB-1 cell growth in a cell viability assay.

NCI-H446 = type: functional, cell-based, Homo sapiens; details: Homo sapiens, NCI-H446;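 note: growth inhibition of NCI-H446 cells determined by a cell viability assay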
Description: SANGER: Inhibition of human NCI-H446 cell growth in a cell viability assay.

NKM-1 = type: functional, cell-based, Homo sapiens; details: Homo sapiens, NKM-1;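 note: growth inhibition of NKM-1 cells, read out with a cell viability assay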
Description: SANGER: Inhibition of human NKM-1 cell growth in a cell viability assay.

SNB-75 = type: functional, cell-based, Homo sapiens; details: Homo sapiens, SNB-75;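 note: cell viability assay measuring growth inhibition of human SNB-75 cells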
Description: SANGER: Inhibition of human SNB75 cell growth in a cell viability assay.

697 = type: functional, cell-based, Homo sapiens; details: Homo sapiens
Description: SANGER: Inhibition of human 697 cell growth in a cell viability assay.

C8166 = type: functional, cell-based, Homo sapiens; details: Homo sapiens, C8166;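 note: growth inhibition of human C8166 cells measured by a cell viability assay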
Description: SANGER: Inhibition of human C8166 cell growth in a cell viability assay.

For `CC(C)c1ccccc1Cc1cc(C(=O)Nc2ccc(S(=O)(=O)c3ccccc3C(C)(C)C)cc2)c(O)c(O)c1O`, the IC50 (CW-2) was 446 nM, the IC50 (Calu-6) was 887 nM and the IC50 (D-263MG) was 283 nM. It also gave an IC50 (GI-1) of 128 nM, an IC50 (GT3TKB) of 301 nM and an IC50 (HCE-T) of 231 nM. For the same compound, the IC50 (HuTu80) was 87 nM, the IC50 (JAR) was 2.6 nM and the IC50 (KURAMOCHI) was 1940 nM. The IC50 (LB2518-MEL) was 178 nM, the IC50 (LC-2-ad) was 424 nM and the IC50 (LNCaP-Clone-FGC) was 535 nM. For the same compound, the IC50 (LS-513) was 607 nM, the IC50 (MLMA) was 185 nM and the IC50 (MMAC-SF) was 3140 nM. It also gave an IC50 (MZ2-MEL) of 212 nM, an IC50 (MZ7-mel) of 1730 nM and an IC50 (NB12) of 136 nM. It also gave an IC50 (NB5) of 423 nM, an IC50 (NB69) of 877 nM and an IC50 (OMC-1) of 565 nM. For the same compound, the IC50 (ONS-76) was 325 nM, the IC50 (RCC10RGB) was 13800 nM and the IC50 (SF-539) was 470 nM. It also gave an IC50 (SK-UT-1) of 28.7 nM, an IC50 (SW872) of 58.9 nM and an IC50 (TE-1) of 957 nM. It also gave an IC50 (A101D) of 87.5 nM, an IC50 (A253 cell line) of 570 nM and an IC50 (ACN) of 696 nM. For the same compound, the IC50 (TE-8) was 129 nM and the IC50 (COLO-668) was 5100 nM.

For `C=C(c1ccc(C(=O)O)cc1)c1cc2c(cc1C)C(C)(C)CCC2(C)C` [BEXAROTENE], the IC50 (CW-2) was over 8000 nM, the IC50 (Calu-6) was over 8000 nM and the IC50 (D-263MG) was over 8000 nM. The IC50 (DB) was over 8000 nM, the IC50 (DEL) was over 8000 nM and the IC50 (GI-1) was over 8000 nM. For the same compound, the IC50 (GT3TKB) was over 8000 nM, the IC50 (HCE-T) was over 8000 nM and the IC50 (HT) was over 8000 nM. It also gave an IC50 (HuTu80) of over 8000 nM, an IC50 (JAR) of over 8000 nM and an IC50 (JVM-2) of over 8000 nM. The IC50 (KE-37) was over 8000 nM, the IC50 (KG-1) was over 8000 nM and the IC50 (KU812 cell line) was over 8000 nM. It also gave an IC50 (KURAMOCHI) of over 8000 nM, an IC50 (L-428) of over 8000 nM and an IC50 (LB2518-MEL) of over 8000 nM. For the same compound, the IC50 (LC-2-ad) was over 8000 nM, the IC50 (LNCaP-Clone-FGC) was over 8000 nM and the IC50 (LS-513) was over 8000 nM. For the same compound, the IC50 (LU-134-A) was over 8000 nM, the IC50 (Lu-65) was over 8000 nM and the IC50 (MC116) was over 8000 nM. The IC50 (MHH-PREB-1) was over 8000 nM, the IC50 (MLMA) was over 8000 nM and the IC50 (MMAC-SF) was over 8000 nM. For the same compound, the IC50 (MZ2-MEL) was over 8000 nM, the IC50 (MZ7-mel) was over 8000 nM and the IC50 (NB12) was over 8000 nM. The IC50 (NB5) was over 8000 nM, the IC50 (NB69) was over 8000 nM and the IC50 (NCI-H446) was over 8000 nM. It also gave an IC50 (NKM-1) of over 8000 nM, an IC50 (OMC-1) of over 8000 nM and an IC50 (ONS-76) of over 8000 nM. The IC50 (RCC10RGB) was over 8000 nM, the IC50 (SF-539) was over 8000 nM and the IC50 (SK-UT-1) was over 8000 nM. The IC50 (SNB-75) was over 8000 nM, the IC50 (SW872) was over 8000 nM and the IC50 (TE-1) was over 8000 nM. For the same compound, the IC50 697 was over 8000 nM, the IC50 (A101D) was over 8000 nM and the IC50 (A253 cell line) was over 8000 nM. It also gave an IC50 (ACN) of over 8000 nM, an IC50 (C8166) of over 8000 nM and an IC50 (TE-8) of over 8000 nM. For the same compound, the IC50 (COLO-668) was over 8000 nM.

With `Nc1ccn([C@@H]2O[C@H](CO)[C@@H](O)C2(F)F)c(=O)n1` [GEMCITABINE] the IC50 (CW-2) was over 1020 nM, the IC50 (Calu-6) was 1.73 nM and the IC50 (D-263MG) was over 1020 nM. It also gave an IC50 (DB) of 84.4 nM, an IC50 (DEL) of under 4 nM and an IC50 (GI-1) of 2.76 nM. The IC50 (GT3TKB) was 42.7 nM, the IC50 (HCE-T) was 12.4 nM and the IC50 (HT) was over 1020 nM. For the same compound, the IC50 (HuTu80) was under 4 nM, the IC50 (JAR) was over 1020 nM and the IC50 (JVM-2) was over 1020 nM. It also gave an IC50 (KE-37) of under 4 nM, an IC50 (KG-1) of 62.2 nM and an IC50 (KU812 cell line) of 1.91 nM. The IC50 (KURAMOCHI) was over 1020 nM, the IC50 (L-428) was 23.6 nM and the IC50 (LB2518-MEL) was 64.5 nM. For the same compound, the IC50 (LC-2-ad) was under 4 nM, the IC50 (LNCaP-Clone-FGC) was over 1020 nM and the IC50 (LS-513) was 888 nM. The IC50 (LU-134-A) was 40 nM, the IC50 (Lu-65) was 304 nM and the IC50 (MC116) was 482 nM. It also gave an IC50 (MHH-PREB-1) of 248 nM, an IC50 (MLMA) of 272 nM and an IC50 (MMAC-SF) of over 1020 nM. For the same compound, the IC50 (MZ2-MEL) was 26.2 nM, the IC50 (MZ7-mel) was 42.7 nM and the IC50 (NB12) was 155 nM. For the same compound, the IC50 (NB5) was over 1020 nM, the IC50 (NB69) was 1.05 nM and the IC50 (NCI-H446) was 269 nM. For the same compound, the IC50 (NKM-1) was under 4 nM, the IC50 (OMC-1) was 583 nM and the IC50 (ONS-76) was 8.68 nM. It also gave an IC50 (RCC10RGB) of 634 nM, an IC50 (SF-539) of 1.02 nM and an IC50 (SK-UT-1) of under 4 nM. The IC50 (SNB-75) was 37.2 nM, the IC50 (SW872) was under 4 nM and the IC50 (TE-1) was over 1020 nM. It also gave an IC50 697 of 6.25 nM, an IC50 (A101D) of 9.37 nM and an IC50 (A253 cell line) of 102 nM. It also gave an IC50 (ACN) of under 4 nM, an IC50 (C8166) of 13.1 nM and an IC50 (TE-8) of 8 nM. For the same compound, the IC50 (COLO-668) was 2.66 nM.
